Key:
[1] = system: Balanus amphitrite cyprids; conditions: reported value of commercially available biocide (Willemsen et al., 1998); cited from earlier work
[2] = system: marine bacteria (26 strains); experiment: Disk inhibition assay; assay type: cell-based, marine bacteria isolated from Singapore fouling communities; conditions: for zone of inhibition at 10 µg/disc: 10 μg per disc; for zone of inhibition at 25 µg/disc: 25 μg per disc; for zone of inhibition at 5 µg/disc: 5 μg per disc; for zone of inhibition at 30 µg/disc: 30 μg per disc
Procedure: Preparation of Drugs onto Disks for Assay
The non-antibiotic pharmaceuticals of Table 1 were prepared in the following way. A tablet with a known amount of active ingredient (as stated in the product information) was ground in a mortar and pestle and suspended in sterile deionized water to a concentration of 2 mg ml^−1. These samples were sonicated for at least 1 min. […] The two halves of the capsule were separated and the powder released straight into a bottle and suitable amount of water added to make a concentration of 2 mg ml^−1.
As a comparison to the pharmaceuticals, to determine the susceptibility of the bacterial isolates to conventional antibiotics, commercially available antibiotic discs were used. Antibiotic discs (Oxoid® CT series) containing Ampicillin [Amp] (2 and 10 μg), Erythromycin [Ery] (5 and 15 μg), Streptomycin [Str] (10 and 25 μg) and Tetracycline [Tet] (5 and 30 μg) were placed on lawns of the bacterial strains inoculated as described below.
Sterile swabs dipped into the cultures were used to inoculate Marine Agar plates with a bacterial lawn by smearing the culture over the surface. After inoculating the plates, discs with antibiotics, pharmaceuticals or control blanks were placed on each plate. Each concentration of antibiotic or pharmaceutical was tested with three replicates on three separate occasions. After the disks were placed on the agar surface, plates were incubated overnight in the dark at 30° C. After incubation, plates were examined for zones of inhibition or clearing around control and treated disks. The diameter of any zone of clearing or inhibition was measured using Vernier calipers.
The assay was repeated three times with three replicates for each concentration used, each time.

CCCCCCCCn1sc(Cl)c(Cl)c1=O [Sea Nine]
ED50 [1]: 0.33 ppm

[H]/N=C(/N)N[C@H]1[C@H](O)[C@@H](O)[C@H](O[C@@H]2O[C@@H](C)[C@](O)(C=O)[C@H]2O[C@@H]2O[C@@H](CO)[C@H](O)[C@@H](O)[C@@H]2NC)[C@@H](N/C(N)=N\[H])[C@@H]1O [Str, streptomycin]
zone of inhibition at 10 µg/disc ([2]; strain 1 (Rhodovulum)): 10 to 19 mm | zone of inhibition at 25 µg/disc ([2]; strain 1 (Rhodovulum)): 20 to 29 mm | zone of inhibition at 10 µg/disc ([2]; strain 2 (Erythrobacter)): < 6 mm | zone of inhibition at 25 µg/disc ([2]; strain 2 (Erythrobacter)): < 6 mm | zone of inhibition at 10 µg/disc ([2]; strain 3 (Erythrobacter)): < 6 mm | zone of inhibition at 25 µg/disc ([2]; strain 3 (Erythrobacter)): < 6 mm | zone of inhibition at 10 µg/disc ([2]; strain 4 (Bacillus)): 10 to 19 mm | zone of inhibition at 25 µg/disc ([2]; strain 4 (Bacillus)): 10 to 19 mm | zone of inhibition at 10 µg/disc ([2]; strain 6 (Vibrio)): < 6 mm | zone of inhibition at 25 µg/disc ([2]; strain 6 (Vibrio)): 10 to 19 mm | zone of inhibition at 10 µg/disc ([2]; strain 7 (Vibrio)): 10 to 19 mm | zone of inhibition at 25 µg/disc ([2]; strain 7 (Vibrio)): 10 to 19 mm | zone of inhibition at 10 µg/disc ([2]; strain 8 (Bacillus)): 10 to 19 mm | zone of inhibition at 25 µg/disc ([2]; strain 8 (Bacillus)): 10 to 19 mm | zone of inhibition at 10 µg/disc ([2]; strain 9 (Bacillus)): 10 to 19 mm | zone of inhibition at 25 µg/disc ([2]; strain 9 (Bacillus)): 10 to 19 mm | zone of inhibition at 10 µg/disc ([2]; strain 10 (Halobacillus)): 10 to 19 mm | zone of inhibition at 25 µg/disc ([2]; strain 10 (Halobacillus)): 10 to 19 mm | zone of inhibition at 10 µg/disc ([2]; strain 11 (Pseudomonas)): 10 to 19 mm | zone of inhibition at 25 µg/disc ([2]; strain 11 (Pseudomonas)): 20 to 29 mm | zone of inhibition at 10 µg/disc ([2]; strain 12 (Gordonia)): < 6 mm | zone of inhibition at 25 µg/disc ([2]; strain 12 (Gordonia)): 10 to 19 mm | zone of inhibition at 10 µg/disc ([2]; strain 13 (Bacillus)): 10 to 19 mm | zone of inhibition at 25 µg/disc ([2]; strain 13 (Bacillus)): 10 to 19 mm | zone of inhibition at 10 µg/disc ([2]; strain 14 (Vibrio)): < 6 mm | zone of inhibition at 25 µg/disc ([2]; strain 14 (Vibrio)): 6 to 9 mm | zone of inhibition at 10 µg/disc ([2]; strain 16 (Pseudoalteromonas)): 6 to 9 mm | zone of inhibition at 25 µg/disc ([2]; strain 16 (Pseudoalteromonas)): 10 to 19 mm | zone of inhibition at 10 µg/disc ([2]; strain 17 (Gordonia)): 10 to 19 mm | zone of inhibition at 25 µg/disc ([2]; strain 17 (Gordonia)): 10 to 19 mm | zone of inhibition at 10 µg/disc ([2]; strain 18 (Microbacterium)): 10 to 19 mm | zone of inhibition at 25 µg/disc ([2]; strain 18 (Microbacterium)): 10 to 19 mm | zone of inhibition at 10 µg/disc ([2]; strain 19 (Erythrobacter)): < 6 mm | zone of inhibition at 25 µg/disc ([2]; strain 19 (Erythrobacter)): < 6 mm | zone of inhibition at 10 µg/disc ([2]; strain 20): < 6 mm | zone of inhibition at 25 µg/disc ([2]; strain 20): < 6 mm | zone of inhibition at 10 µg/disc ([2]; strain 21): 10 to 19 mm | zone of inhibition at 25 µg/disc ([2]; strain 21): 10 to 19 mm | zone of inhibition at 10 µg/disc ([2]; strain 22): 6 to 9 mm | zone of inhibition at 25 µg/disc ([2]; strain 22): 20 to 29 mm | zone of inhibition at 10 µg/disc ([2]; strain 24): < 6 mm | zone of inhibition at 25 µg/disc ([2]; strain 24): 20 to 29 mm | zone of inhibition at 10 µg/disc ([2]; strain 26): < 6 mm | zone of inhibition at 25 µg/disc ([2]; strain 26): 20 to 29 mm | zone of inhibition at 10 µg/disc ([2]; strain 27): < 6 mm | zone of inhibition at 25 µg/disc ([2]; strain 27): < 6 mm | zone of inhibition at 10 µg/disc ([2]; strain 28): 10 to 19 mm | zone of inhibition at 25 µg/disc ([2]; strain 28): 10 to 19 mm | zone of inhibition at 10 µg/disc ([2]; strain 29): 10 to 19 mm | zone of inhibition at 25 µg/disc ([2]; strain 29): 10 to 19 mm | zone of inhibition at 10 µg/disc ([2]; strain 30): 10 to 19 mm | zone of inhibition at 25 µg/disc ([2]; strain 30): 10 to 19 mm

CN(C)[C@@H]1C(O)=C(C(N)=O)C(=O)[C@@]2(O)C(O)=C3C(=O)c4c(O)cccc4[C@@](C)(O)[C@H]3C[C@@H]12 [Tet, tetracycline]
zone of inhibition at 5 µg/disc ([2]; strain 1 (Rhodovulum)): < 6 mm | zone of inhibition at 30 µg/disc ([2]; strain 1 (Rhodovulum)): < 6 mm | zone of inhibition at 5 µg/disc ([2]; strain 2 (Erythrobacter)): < 6 mm | zone of inhibition at 30 µg/disc ([2]; strain 2 (Erythrobacter)): < 6 mm | zone of inhibition at 5 µg/disc ([2]; strain 3 (Erythrobacter)): < 6 mm | zone of inhibition at 30 µg/disc ([2]; strain 3 (Erythrobacter)): < 6 mm | zone of inhibition at 5 µg/disc ([2]; strain 4 (Bacillus)): 10 to 19 mm | zone of inhibition at 30 µg/disc ([2]; strain 4 (Bacillus)): 10 to 19 mm | zone of inhibition at 5 µg/disc ([2]; strain 6 (Vibrio)): < 6 mm | zone of inhibition at 30 µg/disc ([2]; strain 6 (Vibrio)): 6 to 9 mm | zone of inhibition at 5 µg/disc ([2]; strain 7 (Vibrio)): < 6 mm | zone of inhibition at 30 µg/disc ([2]; strain 7 (Vibrio)): 6 to 9 mm | zone of inhibition at 5 µg/disc ([2]; strain 8 (Bacillus)): 6 to 9 mm | zone of inhibition at 30 µg/disc ([2]; strain 8 (Bacillus)): 10 to 19 mm | zone of inhibition at 5 µg/disc ([2]; strain 9 (Bacillus)): 10 to 19 mm | zone of inhibition at 30 µg/disc ([2]; strain 9 (Bacillus)): 10 to 19 mm | zone of inhibition at 5 µg/disc ([2]; strain 10 (Halobacillus)): 30 to 39 mm | zone of inhibition at 30 µg/disc ([2]; strain 10 (Halobacillus)): 10 to 19 mm | zone of inhibition at 5 µg/disc ([2]; strain 11 (Pseudomonas)): < 6 mm | zone of inhibition at 30 µg/disc ([2]; strain 11 (Pseudomonas)): < 6 mm | zone of inhibition at 5 µg/disc ([2]; strain 12 (Gordonia)): < 6 mm | zone of inhibition at 30 µg/disc ([2]; strain 12 (Gordonia)): 30 to 39 mm | zone of inhibition at 5 µg/disc ([2]; strain 13 (Bacillus)): 6 to 9 mm | zone of inhibition at 30 µg/disc ([2]; strain 13 (Bacillus)): 10 to 19 mm | zone of inhibition at 5 µg/disc ([2]; strain 14 (Vibrio)): < 6 mm | zone of inhibition at 30 µg/disc ([2]; strain 14 (Vibrio)): 10 to 19 mm | zone of inhibition at 5 µg/disc ([2]; strain 16 (Pseudoalteromonas)): < 6 mm | zone of inhibition at 30 µg/disc ([2]; strain 16 (Pseudoalteromonas)): < 6 mm | zone of inhibition at 5 µg/disc ([2]; strain 17 (Gordonia)): < 6 mm | zone of inhibition at 30 µg/disc ([2]; strain 17 (Gordonia)): < 6 mm | zone of inhibition at 5 µg/disc ([2]; strain 18 (Microbacterium)): < 6 mm | zone of inhibition at 30 µg/disc ([2]; strain 18 (Microbacterium)): 6 to 9 mm | zone of inhibition at 5 µg/disc ([2]; strain 19 (Erythrobacter)): < 6 mm | zone of inhibition at 30 µg/disc ([2]; strain 19 (Erythrobacter)): < 6 mm | zone of inhibition at 5 µg/disc ([2]; strain 20): < 6 mm | zone of inhibition at 30 µg/disc ([2]; strain 20): 10 to 19 mm | zone of inhibition at 5 µg/disc ([2]; strain 21): < 6 mm | zone of inhibition at 30 µg/disc ([2]; strain 21): 10 to 19 mm | zone of inhibition at 5 µg/disc ([2]; strain 22): 6 to 9 mm | zone of inhibition at 30 µg/disc ([2]; strain 22): 10 to 19 mm | zone of inhibition at 5 µg/disc ([2]; strain 24): < 6 mm | zone of inhibition at 30 µg/disc ([2]; strain 24): < 6 mm | zone of inhibition at 5 µg/disc ([2]; strain 26): < 6 mm | zone of inhibition at 30 µg/disc ([2]; strain 26): < 6 mm | zone of inhibition at 5 µg/disc ([2]; strain 27): < 6 mm | zone of inhibition at 30 µg/disc ([2]; strain 27): 10 to 19 mm | zone of inhibition at 5 µg/disc ([2]; strain 28): < 6 mm | zone of inhibition at 30 µg/disc ([2]; strain 28): 10 to 19 mm | zone of inhibition at 5 µg/disc ([2]; strain 29): 10 to 19 mm | zone of inhibition at 30 µg/disc ([2]; strain 29): 20 to 29 mm | zone of inhibition at 5 µg/disc ([2]; strain 30): 10 to 19 mm | zone of inhibition at 30 µg/disc ([2]; strain 30): 10 to 19 mm

— patent US20060110456A1, “Method for biocidal and/or biostatic treatment and compositions therefor” (NATIONAL UNIVERSITY OF SINGAPORE, priority 2004, published 2006)
